Source: PubChem BioAssay (NCI)
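96-well plates; 48 h exposure; 5 concentrations. Endpoints by linear interpolation between flanking doses. Not reached: highest tested concentration assigned. At the TGI there is no net growth.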 Where a SMILES comes first, the peptide text is derived from it. [ ]: non-standard residue; d: D form. The star is where a group is joined. Iva = CC[C](C)(N)C(=O)O; Boc = CC(C)(C)OC(=O)*; X52 = C1CCC(=NO*)C1

Assays:
Test in all cases: NCI tumour cell line growth inhibition, 48 h
SK-OV-3 ovarian = system: SK-OV-3 ovarian
A498 renal = system: A498 renal
SF-268 CNS = system: SF-268 CNS
SR leukemia = system: SR leukemia
SF-539 CNS = system: SF-539 CNS
UACC-62 melanoma = system: UACC-62 melanoma
BT-549 breast = system: BT-549 breast
CCRF-CEM leukemia = system: CCRF-CEM leukemia
SW-620 colon = system: SW-620 colon
M14 melanoma = system: M14 melanoma
ACHN renal = system: ACHN renal
IGROV1 ovarian = system: IGROV1 ovarian
RXF 393 renal = system: RXF 393 renal
786-0 renal = system: 786-0 renal
SK-MEL-5 melanoma = system: SK-MEL-5 melanoma
MALME-3M melanoma = system: MALME-3M melanoma
COLO 205 colon = system: COLO 205 colon
PC-3 prostate = system: PC-3 prostate
NCI-H460 lung = system: NCI-H460 lung
UO-31 renal = system: UO-31 renal

Row | Compound | TGI (SK-OV-3 ovarian) | TGI (A498 renal) | TGI (SF-268 CNS) | TGI (SR leukemia) | TGI (SF-539 CNS) | TGI (UACC-62 melanoma) | TGI (BT-549 breast) | TGI (CCRF-CEM leukemia) | TGI (SW-620 colon) | TGI (M14 melanoma) | TGI (ACHN renal) | TGI (IGROV1 ovarian) | TGI (RXF 393 renal) | TGI (786-0 renal) | TGI (SK-MEL-5 melanoma) | TGI (MALME-3M melanoma) | TGI (COLO 205 colon) | TGI (PC-3 prostate) | TGI (NCI-H460 lung) | TGI (UO-31 renal)
1 | COc1ccc(-c2c3c(cc4cc5c(cc24)OCO5)C(=O)OC3)cc1OC | > 62.1 µM | > 49.6 µM | > 48 µM | 1.7 µM | 24.6 µM | 1.84 µM | 22.3 µM | > 52.1 µM | 11.7 µM | 1.16 µM | > 100 µM | > 100 µM | 35.8 µM | 13.9 µM | 0.68 µM | 2.92 µM | 11.4 µM | 49.7 µM | 15.9 µM | 14.1 µM
2 | CC(C)OP(=O)(OC(C)C)c1nc(-c2ccccc2)n(-c2ccc([N+](=O)[O-])cc2)n1 | > 100 µM | > 100 µM | > 100 µM | – | > 100 µM | > 100 µM | – | > 100 µM | > 100 µM | > 100 µM | > 100 µM | > 100 µM | – | – | > 100 µM | > 100 µM | > 100 µM | – | > 100 µM | > 100 µM
3 | O=[N+]([O-])c1ccc(N=Nc2c(O)ccc3ccccc23)c([N+](=O)[O-])c1 | > 100 µM | > 100 µM | > 100 µM | > 100 µM | – | > 100 µM | > 100 µM | > 64.6 µM | > 100 µM | > 100 µM | > 100 µM | > 100 µM | > 100 µM | > 100 µM | > 100 µM | > 100 µM | > 100 µM | > 100 µM | > 100 µM | > 100 µM
4 | CCCC[C@H]1[C@@H](OCOc2ccccc2)COC(=O)N1[C@H](C)c1ccccc1 | > 56.1 µM | 29.4 µM | 38.7 µM | > 80.9 µM | – | 30.2 µM | 44.4 µM | 68.8 µM | > 100 µM | 31.2 µM | 47.8 µM | > 61.8 µM | 47.6 µM | – | 16.9 µM | 33.5 µM | > 100 µM | 23.4 µM | 32.1 µM | > 45.1 µM
5 | CCCCCCCCCCCCCCCCCCN(C)C(COC)COP(=O)([O-])OCC[N+](C)(C)C (stereo unspecified) | 25.8 µM | 34.1 µM | 12.5 µM | 22.9 µM | 19 µM | 19.2 µM | 26 µM | 7.41 µM | 21.2 µM | 13.7 µM | 26.9 µM | 3.27 µM | 3.12 µM | 3.56 µM | 29.9 µM | 29.5 µM | 3.22 µM | 3.32 µM | 4.38 µM | 31.4 µM
6 | CCC(C)(NC(=O)C(C)NC(=O)OC(C)(C)C)C(=O)NC(C)C(=O)NC(C)(CC)C(=O)ON=C1CCCC1 (stereo unspecified) (Boc-A[Iva]A[Iva]-X52; configuration not given here) | > 100 µM | > 100 µM | – | > 100 µM | – | > 100 µM | > 100 µM | > 100 µM | – | > 100 µM | – | > 100 µM | > 100 µM | – | > 100 µM | > 100 µM | > 100 µM | > 100 µM | > 100 µM | > 100 µM
7 | O=C(Nc1ccccc1)c1cc2ccccc2c(N=Nc2ccc([N+](=O)[O-])cc2)c1O | > 100 µM | – | > 100 µM | – | – | > 100 µM | > 100 µM | 46.4 µM | > 100 µM | > 100 µM | > 100 µM | > 100 µM | > 100 µM | > 100 µM | > 100 µM | > 100 µM | > 100 µM | > 100 µM | – | > 100 µM
8 | O=P1(Oc2ccc(Cl)cc2Cl)Oc2ccc3ccccc3c2-c2c(ccc3ccccc23)O1 | > 100 µM | > 95.4 µM | > 100 µM | – | 43 µM | 70.4 µM | – | > 89.6 µM | > 100 µM | – | – | > 71.8 µM | 34.7 µM | – | > 100 µM | 46.4 µM | > 100 µM | – | > 90.6 µM | 41.3 µM
9 | C1CSCCSCCSCCSC1 | > 100 µM | > 100 µM | > 100 µM | – | > 100 µM | > 100 µM | > 100 µM | – | > 100 µM | > 100 µM | > 100 µM | > 100 µM | > 100 µM | – | > 100 µM | – | > 100 µM | > 100 µM | > 100 µM | > 100 µM
10 | COc1ccc2nccc(SCC(=O)O)c2c1 | – | > 100 µM | > 100 µM | > 100 µM | – | > 100 µM | > 100 µM | > 100 µM | > 100 µM | > 100 µM | > 100 µM | > 100 µM | > 100 µM | > 100 µM | > 100 µM | – | – | > 100 µM | > 100 µM | > 100 µM
11 | COc1ccc(C2SCC(=O)N2NC(=O)c2ccncc2)cc1F (stereo unspecified) | > 100 µM | > 100 µM | > 100 µM | > 100 µM | – | – | – | – | > 100 µM | > 100 µM | > 100 µM | – | > 100 µM | – | > 100 µM | > 100 µM | > 100 µM | – | > 100 µM | –
12 | COc1ccc2cc3[nH]c(=O)cc(O)c3cc2c1OC | – | > 100 µM | > 100 µM | > 100 µM | > 100 µM | > 100 µM | – | > 100 µM | > 100 µM | > 100 µM | > 100 µM | > 100 µM | > 100 µM | > 100 µM | – | > 100 µM | – | – | > 100 µM | > 100 µM
